# Data taken from ChEMBL document CHEMBL1135869, “Peptide inhibitors of CDK2-cyclin A that target the cyclin recruitment-site: structural variants of the C-terminal Phe” (Bioorg Med Chem Lett, 2002).
# Starred links: 1 amine or outer side, 2 acyl side, 3 side chain; linkers in the order of their positions; H or OH if unused. Non-standard residues stand in square brackets, D forms with d. Residues, ends and D or L forms follow the SMILES beside them. X3 = CC(=O)O[C@@H](c1ccccc1)[C@@H](N[*:1])C(=O)[*:2]; X1 = CC(=O)O[C@H](c1ccccc1)[C@H](N[*:1])C(=O)[*:2]; X2 = O=C(/C(=C/c1ccccc1)N[*:1])[*:2]; Phe(ol) = N[C@H](CO)Cc1ccccc1
# Key:
# [1] = biological target: Cyclin-dependent kinase 2/cyclin A (Homo sapiens, UniProt P24941); experiment: In vitro inhibition of CDK2-cyclin A kinase activity on retinoblastoma protein; type: protein-complex assay
# [2] = Inhibition of competitive binding to cyclin-A kinase complex
# [3] = Inhibition of p21WAF1 peptide recruitment to CDK 2/cyclin-A complex
SMILES,IC50 [1],IC50 [2],IC50 [3]
CC[C@H](C)[C@H](NC(=O)[C@H](CC(C)C)NC(=O)[C@H](CCCNC(=N)N)NC(=O)[C@H](CCCNC(=N)N)NC(=O)[C@H](CCCCN)NC(=O)[C@H](C)NC(=O)[C@@H](N)Cc1cnc[nH]1)C(=O)N[C@@H](C(=O)O)[C@@H](OC(C)=O)c1ccccc1,200 nM,–,–
CC[C@H](C)[C@H](NC(=O)[C@H](CC(C)C)NC(=O)[C@H](CCCN=C(N)N)NC(=O)[C@H](CCCN=C(N)N)NC(=O)[C@H](CCCCN)NC(=O)[C@H](C)NC(=O)[C@@H](N)Cc1c[nH]cn1)C(=O)N[C@@H](C(=O)O)[C@@H](O)c1ccccc1,–,120 nM,110 nM
CC[C@H](C)[C@H](NC(=O)[C@H](CC(C)C)NC(=O)[C@H](CCCN=C(N)N)NC(=O)[C@H](CCCN=C(N)N)NC(=O)[C@H](CCCCN)NC(=O)[C@H](C)NC(=O)[C@@H](N)Cc1c[nH]cn1)C(=O)N[C@H](C(=O)O)[C@H](O)c1ccccc1,–,74 nM,28 nM
CC[C@H](C)[C@H](NC(=O)[C@H](CC(C)C)NC(=O)[C@H](CCCN=C(N)N)NC(=O)[C@H](CCCN=C(N)N)NC(=O)[C@H](CCCCN)NC(=O)[C@H](C)NC(=O)[C@@H](N)Cc1c[nH]cn1)C(=O)N[C@H](C(=O)O)[C@H](OC(C)=O)c1ccccc1 (H-HAKRRLI[X1]-OH),320 nM,230 nM,240 nM
CC[C@H](C)[C@H](NC(=O)[C@H](CC(C)C)NC(=O)[C@H](CCCN=C(N)N)NC(=O)[C@H](CCCN=C(N)N)NC(=O)[C@H](CCCCN)NC(=O)[C@H](C)NC(=O)[C@@H](N)Cc1c[nH]cn1)C(=O)N/C(=C\c1ccccc1)C(=O)O (H-HAKRRLI[X2]-OH),70 nM,60 nM,54 nM
CC[C@H](C)[C@H](NC(=O)[C@H](CC(C)C)NC(=O)[C@H](CCCN=C(N)N)NC(=O)[C@H](CCCN=C(N)N)NC(=O)[C@H](CCCCN)NC(=O)[C@H](C)NC(=O)[C@@H](N)Cc1c[nH]cn1)C(=O)N[C@@H](C(=O)O)[C@@H](OC(C)=O)c1ccccc1 (H-HAKRRLI[X3]-OH),–,190 nM,160 nM
CC[C@H](C)[C@H](NC(=O)[C@H](CC(C)C)NC(=O)[C@H](CCCN=C(N)N)NC(=O)[C@H](CCCN=C(N)N)NC(=O)[C@H](CCCCN)NC(=O)[C@H](CO)NC(=O)[C@@H](N)Cc1c[nH]cn1)C(=O)N[C@H](C(=O)O)[C@H](OC(C)=O)c1ccccc1 (H-HSKRRLI[X1]-OH),–,1320 nM,800 nM
CC[C@H](C)[C@H](NC(=O)[C@H](CC(C)C)NC(=O)[C@H](CCCN=C(N)N)NC(=O)[C@H](CCCN=C(N)N)NC(=O)[C@H](CCCCN)NC(=O)[C@H](CO)NC(=O)[C@@H](N)Cc1c[nH]cn1)C(=O)N/C(=C\c1ccccc1)C(=O)O (H-HSKRRLI[X2]-OH),1300 nM,200 nM,220 nM
CC[C@H](C)[C@H](NC(=O)[C@H](CC(C)C)NC(=O)[C@H](CCCN=C(N)N)NC(=O)[C@H](CCCN=C(N)N)NC(=O)[C@H](CCCCN)NC(=O)[C@H](CO)NC(=O)[C@@H](N)Cc1c[nH]cn1)C(=O)N[C@@H](C(=O)O)[C@@H](OC(C)=O)c1ccccc1 (H-HSKRRLI[X3]-OH),–,1820 nM,600 nM

# Next, values leading:
IC50 [1],IC50 [2],IC50 [3],SMILES
3400 nM,4300 nM,–,CC[C@H](C)[C@H](NC(=O)[C@H](CC(C)C)NC(=O)[C@H](CCCN=C(N)N)NC(=O)[C@H](CCCN=C(N)N)NC(=O)[C@H](CCCCN)NC(=O)[C@H](CO)NC(=O)[C@@H](N)Cc1c[nH]cn1)C(=O)N[C@@H](Cc1ccccc1)C(N)=O
560 nM,250 nM,190 nM,CC[C@H](C)[C@H](NC(=O)[C@H](CC(C)C)NC(=O)[C@H](CCCN=C(N)N)NC(=O)[C@H](CCCN=C(N)N)NC(=O)[C@H](CCCCN)NC(=O)[C@H](CO)NC(=O)[C@@H](N)Cc1c[nH]cn1)C(=O)N[C@H](C(=O)O)[C@H](O)c1ccccc1
430 nM,–,310 nM,CC[C@H](C)[C@H](NC(=O)[C@H](CC(C)C)NC(=O)[C@H](CCCN=C(N)N)NC(=O)[C@H](CCCN=C(N)N)NC(=O)[C@H](CCCCN)NC(=O)[C@H](CO)NC(=O)[C@@H](N)Cc1c[nH]cn1)C(=O)N[C@H](CO)Cc1ccccc1
1200 nM,760 nM,710 nM,CC[C@H](C)[C@H](NC(=O)[C@H](CC(C)C)NC(=O)[C@H](CCCN=C(N)N)NC(=O)[C@H](CCCN=C(N)N)NC(=O)[C@H](CCCCN)NC(=O)[C@H](CO)NC(=O)[C@@H](N)Cc1c[nH]cn1)C(=O)N[C@@H](C(=O)O)[C@@H](O)c1ccccc1
–,22 nM,18 nM,CC[C@H](C)[C@H](NC(=O)[C@H](CC(C)C)NC(=O)[C@H](CCCN=C(N)N)NC(=O)[C@H](CCCN=C(N)N)NC(=O)[C@H](CCCCN)NC(=O)[C@H](C)NC(=O)[C@@H](N)Cc1c[nH]cn1)C(=O)N[C@H](CO)Cc1ccccc1 (H-HAKRRLI[Phe(ol)])
